# Data from ChEMBL document CHEMBL5096229, “A 1,2,3-Triazole Derivative of Quinazoline Exhibits Antitumor Activity by Tethering RNF168 to SQSTM1/P62” (J Med Chem, 2022).
# Calls of active or inactive are those of the source. The calls are words filed in the database; no cut-off is given here.
# How the values were obtained:
# HCT-116 [1] = assay: Cytotoxicity against human HCT-116 cells assessed as reduction in cell viability incubated for 72 hrs by MTS assay; assay type: functional, cell-based; settings: HCT-116, 72 h
# A549 = assay: Cytotoxicity against human A549 cells assessed as reduction in cell viability incubated for 72 hrs by MTS assay; assay type: functional, cell-based; settings: A549, 72 h
# HCT-116 [2] = assay: Induction of cell cycle arrest in human HCT-116 cells assessed as accumulation at G0/G1 phase at 0.34 uM after 24 hrs by propidium iodide-staining based flow cytometry (reference value: 58.01 +/- 1.77%); assay type: functional
# HCT-116 [3] = assay: Induction of cell cycle arrest in human HCT-116 cells assessed as accumulation at S phase at 0.34 uM after 24 hrs by propidium iodide-staining based flow cytometry (reference value: 17.17 +/- 0.18%); assay type: functional
# HCT-116 [4] = assay: Induction of cell cycle arrest in human HCT-116 cells assessed as accumulation at G2/M phase at 0.34 uM after 24 hrs by propidium iodide-staining based flow cytometry (reference value: 23.25 +/- 1.38%); assay type: functional
# Bacteria [5] = assay: Binding affinity to bacteria produced His tagged-P62 at 10 uM incubated for 12 hrs by pull-down based immunoblot assay; settings: filed as activator
# Sequestosome-1 = Sequestosome-1 (Homo sapiens, UniProt Q13501); assay: Binding affinity to P62 in human HCT-116 cells lysates at 10 uM incubated for 12 hrs by pull-down based immunoblot assay; assay type: subcellular; settings: filed as activator
# Sequestosome-1, sequence (Q13501 whole entry): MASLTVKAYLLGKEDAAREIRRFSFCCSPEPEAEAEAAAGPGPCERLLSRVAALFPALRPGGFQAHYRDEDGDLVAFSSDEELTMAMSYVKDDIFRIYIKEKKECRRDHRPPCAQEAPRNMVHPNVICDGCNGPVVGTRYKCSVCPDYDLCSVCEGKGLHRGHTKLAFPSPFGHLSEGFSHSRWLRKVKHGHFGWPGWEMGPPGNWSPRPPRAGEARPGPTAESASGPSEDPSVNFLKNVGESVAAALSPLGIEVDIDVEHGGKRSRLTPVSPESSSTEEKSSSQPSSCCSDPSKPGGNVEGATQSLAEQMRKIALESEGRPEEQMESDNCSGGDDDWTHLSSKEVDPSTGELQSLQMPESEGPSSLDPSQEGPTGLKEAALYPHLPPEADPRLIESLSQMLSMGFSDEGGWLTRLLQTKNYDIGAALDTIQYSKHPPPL
# [6] = molecular target: T1, E3 ubiquitin-protein ligase RNF168 (Homo sapiens, UniProt Q8IYW5); assay: Binding affinity to RNF168 in human HCT-116 cells lysates at 10 uM by pull-down based immunoblot assay; assay type: subcellular; settings: filed as activator
# T1 sequence (Q8IYW5 whole entry): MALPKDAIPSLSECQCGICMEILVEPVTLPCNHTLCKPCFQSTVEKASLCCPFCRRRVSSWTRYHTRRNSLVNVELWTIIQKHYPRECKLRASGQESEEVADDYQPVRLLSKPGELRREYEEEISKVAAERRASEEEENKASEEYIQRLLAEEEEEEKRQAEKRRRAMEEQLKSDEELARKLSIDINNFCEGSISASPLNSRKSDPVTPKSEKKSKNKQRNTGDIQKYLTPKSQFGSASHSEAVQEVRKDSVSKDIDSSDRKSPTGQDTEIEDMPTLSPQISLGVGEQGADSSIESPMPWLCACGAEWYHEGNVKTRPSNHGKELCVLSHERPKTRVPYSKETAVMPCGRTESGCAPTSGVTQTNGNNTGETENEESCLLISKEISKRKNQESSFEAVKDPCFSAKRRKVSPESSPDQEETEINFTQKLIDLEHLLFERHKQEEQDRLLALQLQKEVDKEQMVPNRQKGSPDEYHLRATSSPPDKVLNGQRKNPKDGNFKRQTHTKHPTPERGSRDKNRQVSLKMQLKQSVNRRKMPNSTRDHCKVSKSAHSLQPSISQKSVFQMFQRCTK
# [7] = molecular target: T1, E3 ubiquitin-protein ligase RNF168; assay: Binding affinity to RNF168 (unknown origin) by MST assay
# Bacteria [8] = assay: Binding affinity to bacteria produced GST-tagged RNF168 at 10 uM by pull-down based immunoblot assay; settings: filed as activator
# MGC-803 = assay: Cytotoxicity against human MGC-803 cells assessed as reduction in cell viability incubated for 72 hrs by MTS assay; assay type: functional, cell-based; settings: MGC-803, 72 h
# U2OS = assay: Cytotoxicity against human U2OS cells assessed as reduction in cell viability incubated for 72 hrs by MTS assay; assay type: functional, cell-based
# HCT-116 [9] = assay: Induction of cell cycle arrest in human HCT-116 cells assessed as accumulation at G0/G1 phase at IC50 concentration after 24 hrs by propidium iodide-staining based flow cytometry (reference value: 58.01 +/- 1.77%); assay type: functional
# HCT-116 [10] = assay: Induction of cell cycle arrest in human HCT-116 cells assessed as accumulation at G2/M phase at IC50 concentration after 24 hrs by propidium iodide-staining based flow cytometry (reference value: 23.25 +/- 1.38%); assay type: functional
# MCF7 = assay: Cytotoxicity against human MCF7 cells assessed as reduction in cell viability incubated for 72 hrs by MTS assay; assay type: functional, cell-based; settings: MCF7, 72 h
# [11] = Cytotoxicity against human MCF-10A cells assessed as reduction in cell viability incubated for 72 hrs by MTS assay; assay type: toxicity, cell-based
# HeLa = assay: Cytotoxicity against human HeLa cells assessed as reduction in cell viability incubated for 72 hrs by MTS assay; assay type: functional, cell-based
# A-375 = assay: Cytotoxicity against human A-375 cells assessed as reduction in cell viability incubated for 72 hrs by MTS assay; assay type: functional, cell-based; settings: A-375, 72 h
# HCT-116 [12] = assay: Induction of cell cycle arrest in human HCT-116 cells assessed as accumulation at S phase at IC50 concentration after 24 hrs by propidium iodide-staining based flow cytometry (reference value: 17.17 +/- 0.18%); assay type: functional
# MDA-MB-231 = assay: Cytotoxicity against human MDA-MB-231 cells assessed as reduction in cell viability incubated for 72 hrs by MTS assay; assay type: functional, cell-based; settings: MDA-MB-231, 72 h
# HepG2 = assay: Cytotoxicity against human HepG2 cells assessed as reduction in cell viability incubated for 72 hrs by MTS assay; assay type: functional, cell-based; settings: HepG2, 72 h
# HCT-116 [13] = assay: Induction of apoptosis in human HCT-116 cells at 5 to 10 uM measured after 24 hrs by annexinV-FITC/propidium iodide staining based flow cytometry analysis; assay type: functional, cell-based; settings: dose 5-10 µM
# HCT-116 [14] = assay: Induction of autophagy in human HCT-116 cells assessed as increase in p62 protein level measured after 12 to 24 hrs by Western blot analysis; assay type: functional, cell-based; settings: time 12-24 hrs
# HCT-116 [15] = assay: Induction of autophagy in human HCT-116 cells assessed as increase in LC-3B puncta level measured after 12 to 24 hrs by immunofluorescence analysis; assay type: functional, cell-based; settings: time 12-24 hrs
SMILES,IC50 (HCT-116 [1]) [µM],IC50 (A549) [µM],further results
COc1ccc(-n2cc(-c3ccc4nc(N)nc(N)c4c3)nn2)c([N+](=O)[O-])c1,8.04,8.4,–
COc1ccc(-n2cc(-c3ccc4nc(N)nc(N)c4c3)nn2)cc1O,> 20,> 20,–
Nc1nc(N)c2cc(-c3cn(-c4ccccc4)nn3)ccc2n1,1.93,2.18,–
COC(=O)Nc1nc2cc(C(=O)c3cccs3)ccc2[nH]1 [NOCODAZOLE],–,–,Activity (HCT-116 [2]): 2.92%; Activity (HCT-116 [3]): 7.11%; Activity (HCT-116 [4]): 93.17%
Nc1nc(N)c2cc(-n3cc(-c4ccccc4)nn3)ccc2n1,5.46,6.65,–
Nc1nc(N)c2cc(-c3cn(-c4ccc(Br)cc4)nn3)ccc2n1,1.69,2.14,–
COc1cc(-n2cc(-c3ccc4nc(N)nc(NCCCCCCNC(=O)CCCC[C@@H]5SC[C@@H]6NC(=O)N[C@@H]65)c4c3)nn2)cc(OC)c1OC,–,–,Activity (Bacteria [5]): Active; Activity (Sequestosome-1): Active; Activity [6]: Active; Kd [7]: 6.82 µM; Activity (Bacteria [8]): Active
O=c1[nH]cc(F)c(=O)[nH]1 [FLUOROURACIL],4.89,4.52,IC50 (MGC-803): 7.54 µM; IC50 (U2OS): > 20 µM; Activity (HCT-116 [9]): 34.65%; Activity (HCT-116 [10]): 11.89%; IC50 (MCF7): > 20 µM; IC50 at 72 h [11]: > 20 µM; IC50 (HeLa): > 20 µM; IC50 (A-375): 3.52 µM; Activity (HCT-116 [12]): 65.12%; IC50 (MDA-MB-231): 10.2 µM
COc1ccc(-n2cc(-c3ccc4nc(N)nc(N)c4c3)nn2)cc1,2.44,> 20,–
Cc1ccc(-n2cc(-c3ccc4nc(N)nc(N)c4c3)nn2)cc1,2.46,1.78,–
COc1cccc(-n2cc(-c3ccc4nc(N)nc(N)c4c3)nn2)c1,2.75,3.27,–
COc1cc(OC)cc(-n2cc(-c3ccc4nc(N)nc(N)c4c3)nn2)c1,1.34,4.74,–
Nc1nc(N)c2cc(-c3cn(-c4ccc(Cl)cc4)nn3)ccc2n1,2.15,7.61,–
COc1ccc(-n2cc(-c3ccc4nc(N)nc(N)c4c3)nn2)c(OC)c1,5.35,> 20,–
Cc1nc2ccc(CN(C)c3ccc(C(=O)N[C@@H](CCC(=O)O)C(=O)O)s3)cc2c(=O)[nH]1 [RALTITREXED],0.076,0.81,IC50 (MGC-803): 9.52 µM; IC50 (U2OS): > 20 µM; IC50 (MCF7): 10.9 µM; IC50 at 72 h [11]: > 20 µM; IC50 (HepG2): 9.63 µM; IC50 (HeLa): 5.51 µM; IC50 (A-375): 4.68 µM; IC50 (MDA-MB-231): > 20 µM
COc1cc(-c2cn(-c3ccc4nc(N)nc(N)c4c3)nn2)cc(OC)c1OC,0.87,1.88,–
CC[C@@]1(O)C(=O)OCc2c1cc1n(c2=O)Cc2cc3ccccc3nc2-1,–,–,Activity (HCT-116 [13]): Active
Nc1nc(N)c2cc(-c3cn(-c4ccc([N+](=O)[O-])cc4)nn3)ccc2n1,9.86,7.83,–
CCN(CC)CCCC(C)Nc1ccnc2cc(Cl)ccc12 (stereo not drawn),–,–,Activity (HCT-116 [14]): Active; Activity (HCT-116 [15]): Active
Nc1nc(N)c2cc(-c3cn(-c4ccc(F)cc4F)nn3)ccc2n1,3.29,3.74,–
Nc1nc(N)c2cc(-c3cn(-c4ccc(O)cc4)nn3)ccc2n1,> 20,> 20,–
COc1ccc(OC)c(-n2cc(-c3ccc4nc(N)nc(N)c4c3)nn2)c1,3.09,8.36,–
N#Cc1ccc(-n2cc(-c3ccc4nc(N)nc(N)c4c3)nn2)cc1,> 20,> 20,–
COc1cc(-n2cc(-c3ccc4nc(C)[nH]c(=O)c4c3)nn2)cc(OC)c1OC,> 20,> 20,–
COc1cc(-n2cc(-c3ccc4nc(N)[nH]c(=O)c4c3)nn2)cc(OC)c1OC,> 20,> 20,–
Nc1nc(N)c2cc(-c3cn(-c4ccc(F)cc4)nn3)ccc2n1,2.89,8.7,–
